How the values were obtained:
[1] = target: TetA(B)-Δ394–401-Thrombin-His12 (Escherichia coli, UniProt P02980, DEL195-199/DEL203-207); assay: biochemical
From the text: isothermal titration calorimetry on TetA(B)-Δ394–401-Thrombin-His12

[2] = target: T1, TetA(B)-Δ394–401-Thrombin-His12 (Escherichia coli, UniProt P02980, DEL394-401); assay: isothermal titration calorimetry; type: binding
T1 construct: C-terminal truncation of residues 394-401, thrombin site and His12 tag (also printed as His10) kept, pET21b, expressed in E. coli C43, purified in LMNG
T1 sequence (P02980 1-393, stated change not applied): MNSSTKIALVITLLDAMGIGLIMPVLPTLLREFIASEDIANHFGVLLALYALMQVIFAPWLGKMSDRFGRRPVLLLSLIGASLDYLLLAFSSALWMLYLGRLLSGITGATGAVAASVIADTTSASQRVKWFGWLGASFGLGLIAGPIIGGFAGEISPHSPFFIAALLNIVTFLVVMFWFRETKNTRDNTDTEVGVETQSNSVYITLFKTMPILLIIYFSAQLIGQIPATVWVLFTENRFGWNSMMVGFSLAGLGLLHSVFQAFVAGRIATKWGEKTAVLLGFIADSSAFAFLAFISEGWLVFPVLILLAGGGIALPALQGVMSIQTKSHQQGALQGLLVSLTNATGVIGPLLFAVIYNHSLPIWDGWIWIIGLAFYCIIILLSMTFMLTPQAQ

[3] = target: T2, TetA(B)-His10 (Escherichia coli, UniProt P02980); assay: isothermal titration calorimetry; type: binding
T2 construct: full length (401 residues), C-terminal His10 tag kept, pET21b, expressed in E. coli C43, purified in LMNG
T2 sequence (P02980 whole entry): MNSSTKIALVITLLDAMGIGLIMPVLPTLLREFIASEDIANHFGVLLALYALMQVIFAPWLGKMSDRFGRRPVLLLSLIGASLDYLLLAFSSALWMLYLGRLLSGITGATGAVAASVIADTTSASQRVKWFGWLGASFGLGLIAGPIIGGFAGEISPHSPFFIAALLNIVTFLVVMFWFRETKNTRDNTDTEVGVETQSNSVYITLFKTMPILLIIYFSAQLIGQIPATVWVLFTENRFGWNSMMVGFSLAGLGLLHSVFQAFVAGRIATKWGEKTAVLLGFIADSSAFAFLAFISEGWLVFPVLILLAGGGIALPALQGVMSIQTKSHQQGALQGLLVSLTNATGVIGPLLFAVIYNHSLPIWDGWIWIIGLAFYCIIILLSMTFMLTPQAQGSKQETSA
From the text: isothermal titration calorimetry on TetA(B)-His10

Chain of TetA(B)-Δ394–401-Thrombin-His12 (Escherichia coli, UniProt P02980, DEL195-199/DEL203-207) (P02980 1-393, stated change not applied): as the sequence (P02980 1-393, stated change not applied) above

`CN(C)[C@@H]1C(=O)C(C(N)=O)=C(O)[C@@]2(O)C(=O)C3=C(O)c4c(O)cccc4[C@@](C)(O)[C@H]3C[C@@H]12` [tetracycline] gave a Kd [1] of 17.5 ± 0.5 µM, a Kd [2] of 10 ± 2 µM and a Kd [3] of 7.3 ± 0.5 µM.
